Tests used:
[1] = molecular target: Ba/F3-Δ19del/T790M/C797S cells (Homo sapiens, UniProt P00533, T790M/C797S, cells depend on it, form not given); assay: Ba/F3-Δ19del/T790M/C797S cell proliferation assay (CellTiter Glo); format: cell-based; settings: 72 hours, CTG luminescence, read-out: BaF3 Δ19del/T790M/C797S IC50
Experimental: (§1) RPMI 1640, 10% FBS and 1% PS; DMEM, 10% FBS and 1% PS
(§2) a) The medium was preheated in a 37° C. water bath in advance.
(§3) b) Remove the cryogenic vials from the liquid nitrogen tank, quickly put it into a 37° C. water bath, and completely melt it in 1 min.
(§4) c) Transfer the cell suspension to a 15 mL centrifuge tube containing 8 mL of medium, and centrifuge at 1000 rpm for 5 min.
(§5) d) Discard the supernatant, resuspend the cells in 1 mL of culture medium, transfer it to a 75 cm^2 flask containing 15 mL of culture medium, and culture the cells in a incubator with 5% CO2 at 37° C.
(§6) b) Collect the cells in a 15 mL centrifuge tube and centrifuge at 1000 rpm for 5 min. Discard the supernatant, count to make the cell density at 1×10^4 cells/mL, and then place it in a incubator with 5% CO2 at 37° C.
(§7) a) Dilute the test compound (20 mM stock solution) to 10 mM with 100% DMSO as the starting concentration, and then serially dilute 3 times with a “9+0” concentration in 96-well dilution plate (Cat #P-05525, Labcyte);
(§8) b) Dilute compound solution thereof to 1:100 in medium to prepare 10-fold working solution.
(§9) a) Centrifuge the growth cells in logarithmic phase at 1000 rpm for 5 minutes, resuspend the cells in culture medium, and then count the cells;
(§10) b) Inoculate the cells into a 96-well cell culture plate with a density of 2000 cells/well;
(§11) a) 15 μl of compounds prepared at step 2 were added to cell plate, the final concentrations were […], 370.4, 123.5, 41.2, 13.7, 4.6, 1.5 and 0 nM, and the final concentration of DMSO was 0.1%. The blank control well was a culture medium (0.1% DMSO);
(§12) b) Incubate cells in an incubator for another 72 hours;
(§13) a) Take out the 96-well cell culture plate and add 50 μl of CTG reagent (CellTiter Glo kit, promega, Cat#G7573);
(§14) b) Shake the plate for 2 minutes and let cool at room temperature for 10 minutes;
(§15) c) Read luminous signal value with PerkinElmer reader.
(§16) The data were analyzed by GraphPad Prism 6.0 software to obtain the fitting curve of compound activity.
(§17) Fitting compound IC50 from nonlinear regression equation:
(§18) Y=Min+(Max−Min)/(1+10^((Log IC50−X)*slope));
(§19) X: Logarithm of compound concentration; Y: luminous signal value.

EGFR Δ19del/T790M/C797S = EGFR Δ19del/T790M/C797S (Homo sapiens, UniProt P00533, T790M/C797S, form not given); assay: EGFR Δ19del/T790M/C797S kinase test (mobility variation analysis, Caliper EZ Reader); format: biochemical; settings: kinase inhibition, top concentration 300 nM
Experimental: Mobility variation analysis was performed to determine the affinity of the compound for EGFRΔ19del/T790M/C797S. The enzymatic reaction scheme is as follows:
1. Prepare 1*kinase buffer as follows.
2. Prepare compound concentration gradient: The test compound was tested at concentration of 300 nM, diluted with 100% DMSO solution in a 96-well plate to 100-fold final concentration, and then diluted to 3-fold concentration with Precision.10. Compound at each concentration was further diluted to 5-fold final concentration of intermediate dilution.
3. Add 5 μL of each prepared intermediate dilution compounds to the compound wells of 384-well plate respectively, and test the repeated wells of each concentration; add 5 μL of 5% DMSO into the negative control well and the positive control well respectively.
4. Prepare 2.5-fold final concentration of kinase solution with 1×Kinase buffer.
5. Add 10 μL of 2.5-fold final concentration of kinase solution to the compound well and the positive control well; add 10 μL of 1×Kinase buffer to the negative control well.
6. Centrifuge at 1000 rpm for 30 s, shake the reaction plate for well mixing, and then incubate at room temperature for 10 minutes.
7. Prepare a mixture of ATP and Kinase substrate (5-FAM-EEPLYWSFPAKKK-CONH2) at 2.5-fold final concentration with 1×Kinase buffer.
8. Add 10 μL mixture of ATP and substrate at 2.5-fold final concentration to start reaction.
9. Centrifuge the 384-well plate at 1000 rpm for 30 s, shake it well and then incubate it at room temperature for corresponding time.
10. Add 30 μL of stop detection solution to stop the kinase reaction, centrifuge at 1000 rpm for 30 s, and shake it well.
11. Read conversion rate with Caliper EZ Reader.
Convert the conversion rate to inhibition rate:
inhibition %=(max−conversion % sample)/(max−min)*100.
“max”: Mean value of negative control wells; “min”: Mean value of positive control wells; conversion % sample: Sample conversion reading.
GraphPad Prism 5 was used for % inhibition curve fitting to obtain the IC50 value.
The calculation formula: Y=inhibition %_min+(inhibition %_max−inhibition %_min)/(1+(IC50/X)^slope). wherein, Y is inhibition %; X is concentration of compound to be tested.

[2] = Pharmacokinetic experiment in rats, oral administration; format: in vivo; settings: Sprague-Dawley (SD), rat, 5 mg/kg, male SD rats, 5 mpk, plasma
Experimental: Test 3 Pharmacokinetic Experiment
Male SD rats (3 rats in each group) were administered orally, and fasted overnight from at least 12 hours before administration to 4 hours after administration before the experiment. Blood was taken from the orbital vein. The time points of blood collection for oral administration were: 15 min, 30 min, 1 hr, 2 hr, 4 hr, 7 hr and 24 hr, the dosage of administration was 5 mpk, and the blood collection volume was 300 μL. After anticoagulant treatment with 2.0% EDTA, the blood was centrifuged at 4000 rpm for 5 min, and then about 100 μL was taken and placed for testing at −20° C. Plasma samples were analyzed by liquid chromatography tandem mass spectrometry (LC-MS/MS). The plasma concentration-time data of individual animals were analyzed by the non-compartment model of WinNonlin (V4.1, Pharsight) software, and the pharmacokinetic parameters of the compounds tested were calculated.

A431 wild-type cell line = assay: A431 wild-type cell proliferation assay (CellTiter Glo); format: cell-based; settings: Homo sapiens, A-431, 72 hours, CTG luminescence
Experimental: as §1, §2, §3, §4, §5, §6, §7, §8, §9, §10, §11, §12, §13, §14, §15, §16, §17, §18, §19

Chain of EGFR Δ19del/T790M/C797S (P00533 with tags, fused parts or gaps DEL746-750/T790M/C797S, form open): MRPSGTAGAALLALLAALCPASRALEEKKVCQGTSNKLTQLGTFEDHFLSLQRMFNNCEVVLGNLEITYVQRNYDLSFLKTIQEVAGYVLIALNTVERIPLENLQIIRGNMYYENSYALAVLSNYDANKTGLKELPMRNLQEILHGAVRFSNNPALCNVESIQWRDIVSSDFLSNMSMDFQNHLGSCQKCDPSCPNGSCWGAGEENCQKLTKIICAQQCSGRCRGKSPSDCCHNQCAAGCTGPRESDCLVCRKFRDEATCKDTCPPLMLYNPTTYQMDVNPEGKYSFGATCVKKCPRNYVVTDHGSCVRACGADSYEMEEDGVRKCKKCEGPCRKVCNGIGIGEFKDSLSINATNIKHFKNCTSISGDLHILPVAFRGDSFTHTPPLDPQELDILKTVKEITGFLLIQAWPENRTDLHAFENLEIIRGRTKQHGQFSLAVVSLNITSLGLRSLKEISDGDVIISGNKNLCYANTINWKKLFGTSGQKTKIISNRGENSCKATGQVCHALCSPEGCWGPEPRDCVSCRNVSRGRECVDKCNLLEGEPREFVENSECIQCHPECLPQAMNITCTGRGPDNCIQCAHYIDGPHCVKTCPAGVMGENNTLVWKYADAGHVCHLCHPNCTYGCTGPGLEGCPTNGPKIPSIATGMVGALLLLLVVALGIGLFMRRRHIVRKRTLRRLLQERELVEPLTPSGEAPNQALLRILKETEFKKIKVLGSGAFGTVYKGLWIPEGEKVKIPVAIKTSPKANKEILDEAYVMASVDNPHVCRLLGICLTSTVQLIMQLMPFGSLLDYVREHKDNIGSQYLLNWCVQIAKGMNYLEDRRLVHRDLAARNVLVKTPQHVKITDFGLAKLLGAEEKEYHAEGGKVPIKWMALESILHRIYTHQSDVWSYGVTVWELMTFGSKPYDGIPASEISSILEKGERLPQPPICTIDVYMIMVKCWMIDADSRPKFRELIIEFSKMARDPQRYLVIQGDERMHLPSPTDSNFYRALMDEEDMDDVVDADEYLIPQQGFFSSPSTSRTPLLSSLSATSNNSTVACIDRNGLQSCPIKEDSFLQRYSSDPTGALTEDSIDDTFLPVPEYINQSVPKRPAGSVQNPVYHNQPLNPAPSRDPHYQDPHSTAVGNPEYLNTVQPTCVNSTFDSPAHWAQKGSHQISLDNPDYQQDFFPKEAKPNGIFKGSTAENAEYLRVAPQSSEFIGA
Chain of Ba/F3-Δ19del/T790M/C797S cells (P00533 with tags, fused parts or gaps DEL746-750/T790M/C797S, form open): as above

Structure (SMILES) | GI50 [1] [nM] | IC50 (EGFR Δ19del/T790M/C797S) [nM] | AUC(0-t) [2] [ng·h/mL] | Cmax [2] [ng/mL] | half-life ([2]; read-out: t½ (converted)) [h] | IC50 (A431 wild-type cell line) [nM]
CCc1cc(Nc2ncc(Br)c(Nc3ccc(C4CC4)cc3P(C)(C)=O)n2)c(OC)cc1N1CCC(N2CCN(C)CC2)CC1 [Compound 1, (2-((5-Bromo-2-((5-ethyl-2-methoxy-4-(4-(4-methylpiperazin-1-yl)piperidin-1-yl)phenyl)amino)pyrimidin-4-yl)amino)-5-cyclopropylphenyl)dimethylphosphine oxide] | 1.2 | 0.3 | 32900 | 2100 | 9.1 | 682
CCn1cc(-c2cc(Nc3ncc(Br)c(Nc4ccc(C5CC5)cc4P(C)(C)=O)n3)c(OC)cc2N2CCC(N3CCN(C)CC3)CC2)cn1 [Compound 2] | 7.2 | 0.4 |  |  |  | 268
CCn1cc(-c2cc(Nc3ncc(OC)c(Nc4ccc(C5CC5)cc4P(C)(C)=O)n3)c(OC)cc2N2CCC(N3CCN(C)CC3)CC2)cn1 [Compound 3, (5-Cyclopropyl-2-((2-((5-(1-ethyl-1H-pyrazol-4-yl)-2-methoxy-4-(4-(4-methylpiperazin-1-yl)piperidin-1-yl)phenyl)amino)-5-methoxypyrimidin-4-yl)amino)phenyl)dimethylphosphine oxide] | 55.4 | 0.4 |  |  |  | 830
COc1cc(N2CCC(N3CCN(C)CC3)CC2)ccc1Nc1ncc(Cl)c(Nc2ccc(C3CC3)cc2P(C)(C)=O)n1 [Compound 4] |  | 1.2 |  |  |  | 
CCc1cc(Nc2ncc(OC)c(Nc3ccc(C4CC4)cc3P(C)(C)=O)n2)c(OC)cc1N1CCC(N2CCN(C)CC2)CC1 [Compound 5] | 302 | 1.6 |  |  |  | 

Now from value to compound:

GI50 [1] [nM] | IC50 (EGFR Δ19del/T790M/C797S) [nM] | AUC(0-t) [2] [ng·h/mL] | Cmax [2] [ng/mL] | half-life ([2]; read-out: t½ (converted)) [h] | IC50 (A431 wild-type cell line) [nM] | Structure (SMILES)
15.6 | 0.7 |  |  |  | 674 | CCc1cc(Nc2ncc(Br)c(Nc3ccc(C4CCOCC4)cc3P(C)(C)=O)n2)c(OC)cc1N1CCC(N2CCN(C)CC2)CC1 [Compound 6, (2-((5-Bromo-2-((5-ethyl-2-methoxy-4-(4-(4-methylpiperazin-1-yl)piperidin-1-yl)phenyl)amino)pyrimidin-4-yl)amino)-5-(tetrahydro-2H-pyran-4-yl)phenyl)dimethylphosphine oxide]
38.3 | 1.1 |  |  |  | 1400 | CCc1cc(Nc2ncc(Cl)c(Nc3ccc(C4CCCC4)cc3P(C)(C)=O)n2)c(OC)cc1N1CCC(N2CCN(C)CC2)CC1 [Compound 7, (2-((5-Chloro-2-((5-ethyl-2-methoxy-4-(4-(4-methylpiperazin-1-yl)piperidin-1-yl)phenyl)amino)pyrimidin-4-yl)amino)-5-cyclopentylphenyl)dimethylphosphine oxide]
30.4 | 0.3 |  |  |  | 886 | CCc1cc(Nc2ncc(Br)c(Nc3ccc(N4CCOCC4)cc3P(C)(C)=O)n2)c(OC)cc1N1CCC(N2CCN(C)CC2)CC1 [Compound 8]
5.2 | 0.3 |  |  |  | 604 | COc1cc(N2CCC(N3CCN(C)CC3)CC2)c(-c2ccn(C)c2)cc1Nc1ncc(Br)c(Nc2ccc(C3CC3)cc2P(C)(C)=O)n1 [Compound 9, (2-((5-Bromo-2-((2-methoxy-5-(1-methyl-1H-pyrrol-3-yl)-4-(4-(4-methylpiperazine-1-yl)piperidin-1-yl)phenyl)amino)pyrimidin-4-yl)-amino)-5-cyclopropylphenyl)dimethylphosphine oxide]
9.7 | 0.3 |  |  |  | 543 | COc1cc(N2CCC(N3CCN(C)CC3)CC2)c(C)cc1Nc1ncc(Br)c(Nc2ccc(C3CC3)cc2P(C)(C)=O)n1 [Compound 10, (2-((5-Bromo-2-((2-methoxy-5-methyl-4-(4-(4-methylpiperazin-1-yl)piperidin-1-yl)phenyl)Amino)pyrimidin-4-yl)amino)-5-cyclopropylphenyl)dimethylphosphine oxide]
49.9 | 2.7 |  |  |  |  | COc1cc(N2CCC(N3CCN(C)CC3)CC2)ccc1Nc1ncc(Cl)c(Nc2ccc(C)cc2P(C)(C)=O)n1 [Control example 1, reference compound]
